From EP0402733A2, “Agent for the treatment of central nervous system illnesses and for the enhancement of cerebral blood flow” (Dr. Karl Thomae GmbH, priority 1989, dated 1990)

Legend:
[1] = molecular target: T1, muscarinischen Rezeptoren des Cortex (Rezeptoren vom M₁-Subtyp) (Rattus norvegicus, UniProt P08482); assay: 3H-NMS binding study at muscarinic receptors of the cortex (cerebral cortex homogenate); set-up: species or system Sprague-Dawley-Ratten; conditions: 0,3 nM ³H-NMS, Großhirnrinde homogenate 1:3000, 30°C, 45 min
T1 sequence (P08482 1-460): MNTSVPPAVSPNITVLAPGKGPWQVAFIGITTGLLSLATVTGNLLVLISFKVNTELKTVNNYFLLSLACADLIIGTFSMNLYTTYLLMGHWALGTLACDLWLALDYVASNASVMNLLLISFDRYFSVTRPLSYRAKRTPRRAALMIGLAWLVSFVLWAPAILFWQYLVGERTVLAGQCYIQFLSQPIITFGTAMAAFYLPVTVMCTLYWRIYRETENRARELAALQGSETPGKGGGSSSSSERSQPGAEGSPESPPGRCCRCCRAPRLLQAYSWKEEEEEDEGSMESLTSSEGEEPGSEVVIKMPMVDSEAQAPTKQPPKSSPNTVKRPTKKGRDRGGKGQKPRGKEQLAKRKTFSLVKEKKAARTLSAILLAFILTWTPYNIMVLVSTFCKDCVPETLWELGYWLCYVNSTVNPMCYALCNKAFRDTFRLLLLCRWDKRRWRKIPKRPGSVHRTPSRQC
From the text: Als Organspender dienten männliche Sprague-Dawley-Ratten mit 180-220 g Körpergewicht. Nach Entnahme der Großhirnrinde wurden alle weiteren Schritte in eiskaltem Hepes-HCl-Puffer (pH 7,4; 100 m molar NaCl, 10 m molar MgCl₂) vorgenommen. Das Gesamtherz wurde mit einer Schere zerkleinert. Alle Organe wurden abschließend in einem Potter homogenisiert.
Für den Bindungstest wurden die Organhomogenate in folgender Weise verdünnt:
Die Inkubation der Organhomogenate erfolgte bei einer bestimmten Konzentration des Radioliganden und einer Konzentrationsreihe der nichtradioaktiven Testsubstanzen im Eppendorf-Zentrifugenröhrchen bei 30°C. Die Inkubationsdauer betrug 45 Minuten. Als Radioligand wurde 0,3 n molar ³H-N-Methylscopolamin (³H-NMS) verwendet. Die Inkubation wurde durch Zugabe von eiskaltem Puffer mit nachfolgender Vakuumfiltration beendet. Die Filter wurden mit kaltem Puffer gespült und ihre Radioaktivität bestimmt. Sie repräsentiert die Summe von spezifischer und unspezifischer Bindung von ³H-NMS. Der Anteil der unspezifischen Bindung wurde defi niert als jene Radioaktivität, die in Anwesenheit von 1 µ molar Chinuclidinylbenzilat gebunden wurde. Es wurden immer Vierfachbestimmungen vorgenommen. Die IC₅₀-Werte der nichtmarkierten Testsubstanzen wurden graphisch bestimmt. […]

[2] = test system: inhibitorischen Autorezeptoren in hippocampalem Gewebe; assay: Transmitter release study: in vitro acetylcholine release from electrically stimulated hippocampal slices, antagonism of carbachol; format: biochemical, Ratten
From the text: Die Versuche zur in-vitro Freisetzung von Acetylcholin aus hippocampalen Gewebeschnitten wurden in Analogie zu Anordnungen durchgeführt, die für die Freisetzung von 5-HT aus Hypothalamus- bzw. Hippocampus-Gewebe beschrieben sind (vgl. M.H. Richards, Naunyn Schmiedeberg's Arch. Pharmacol. 329, 359-366 (1985) und T.J. Feuerstein, G. Hertting und R. Jackisch, Europ. J. Pharmacol. 107, 233-242 (1985)).
Männliche Ratten (Stamm Chbb:Thom, Gewicht 200 bis 300 g) wurden ohne Vorbehandlung dekapitiert; das gesamte Gehirn wurde sofort entnommen und unter Eiskühlung zerlegt. Gemäß den oben beschriebenen Verfahren wurde der Hippocampus in 0,4 mm dicke Schnitte mit Hilfe eines McIlwain-Gewebehackers geschnitten. Die Gewebeschnitte wurden 30 Minuten lang bei 37°C vorincubiert in Gegenwart von 0,05 mM ³H-Cholin in einem Krebs-Henseleit Puffer der folgenden Zusammensetzung: 120 mM NaCl, 4,8 mM KCl, 1,3 mM CaCl₂, 1,2 mM KH₂PO₄, 1,2 mM MgSO₄ und 25 mM NaHCO₃. Der Puffer enthielt zusätzlich 2 g Glucose und 100 mg EDTA. Der Puffer wurde mit Natronlauge auf einen pH-Wert von 7,4 bei 20°C eingestellt. Alle Lösungen wurden kontinuierlich mit 95 % O₂ und 5 % CO₂ gesättigt. Die Gewebeschnitte wurden daraufhin gespült, jeder Gewebeschnitt wurde jeweils willkürlich auf 12 Superfusionseinheiten verteilt und mit dem Puffer bei 37°C bei einer Fließgeschwindigkeit von 1 ml/min überspült. […]

[3] = molecular target: muscarinische Rezeptoren der Pia mater des Rindes; assay: Inhibition of 3H-NMS binding to muscarinic receptors of bovine pia mater homogenate; set-up: species or system Rind; conditions: 0,3 nM [³H]NMS, 45 min, room temperature
Experimental: Die Pia-Gefäße von Rinder-Hirnen, erhalten vom lokalen Schlachthof, wurden präpariert und von Blutresten gereinigt. Je 0,5 g-Portionen wurden bei 8°C bis zur weiteren Verwendung gelagert. Zur Homogenatgewinnung wurden 0,5 g Pia-Geäße mittels eines Gewebehackers zerkleinert, in 60 ml HEPES-Puffer (20 mM HEPES, 10 mM MgCl₂, 100 mM NaCl, pH 7,50) aufgenommen, mit einem Ultra-Turrax homogenisiert und 20 min. bei 0°C mit 48000 x g zentrifugiert. Das Pellet wurde erneut mit einem Ultra-Turrax homogenisiert, durch Mull filtriert und mit HEPES-Puffer auf eine Verdünnung von 1:140 bezogen auf das Feuchtgewicht der Gefäße verdünnt.
0,3 nM [³H]NMS und steigende Konzentrationen des Antagonisten wurden mit dem Homogenat in einem Gesamtvolumen von 0,52 ml für 45 min. bei Raumtemperatur inkubiert. Der Inkubationsansatz wurde mit Hilfe eines Scatron Cell Harvesters über Glasfaser-Filtermatten filtriert und zweimal mit eiskalter physiologischer Kochsalzlösung gewaschen. Die Filter-gebundene Radioaktivität wurde in einem Flüssigkeitsszintillationszähler bestimmt. Als unspezifische Bindung wurde die gebundene Radioaktivität in Gegenwart von 10⁻⁶M (-)-Chinuclidinyl-benzilat definiert.

CCN(CCCC(=O)N1CCC(C(=O)N(C)C)CC1)C(C)Cc1ccc(OC)cc1 (racemic) [Substanz I, (±)-1-[4-[Ethyl[2-(4-methoxyphenyl)-1-methylethyl]amino]-1-oxobutyl]-N,N-dimethyl-4-piperidincarboxamid]
Rezeptor-Bingungstests Cortex -log IC₅₀ (M) [1]: 7,3
ACh-Release am Hippocampus-Gewebe (pA₂) ([2]; rat hippocampal slices, electrical stimulation, agonist Carbachol): 8,7
Verhältnis von IC₅₀ (Cortex) zu pA₂(ACh-Release) ([2]; selectivity ratio: cortex (M₁) binding versus ACh release in hippocampus): 25
-log IC₅₀ (M) [3]: 8,2
